Test results reported in patent publication US20120171396A1, “Drug suspension agent and method of manufacture thereof” (Beijing Zhongwei Shennong Chronic Desease Medicine Academe …, priority 2009, published 2012).

Experiments:
patients with diabetes = assay: Clinical curative effect of DHD on diabetes (diabetes kidney disease patients); format: in vivo, human; design: Blood glucose at 2 hours after the meal / Fasting blood glucose (FBG): unit not given here
From the text: 1. The standard of selecting patients: All patients with diabetes are in accordance with WHO diabetes diagnostic criteria. Select 18 cases of urine protein, renal function and two groups with the matching developing speeds of renal function injury within one year from diabetes kidney disease patients (DN). […] Once patients are selected, other drugs related to sugar, fat metabolism are stopped administering, diet control and proper exercise therapy are continued. Test fasting blood glucose and blood glucose at 2 hours after the meal every week. After stabilizing the blood glucose, experimental treatment is performed, the treatment group uses DHD, once every day, four hours every time. […] 3. Results: By statistic treatment, clinical curative effects between the two groups are tested by Ridit, and observation indexes between the two groups and within every group before and after treatment are tested by t-test. Marked: […] Effective: […]

[1] = tested on: gastric and duodenal ulcer patients; assay: Clinical observation of NHD on gastric and duodenal ulcer patients; format: in vivo, human
Method: 1. Case selection: Selected 80 inpatients are in accordance with gastric and duodenal ulcer diagnostic criteria. The inpatients are randomly divided into two groups. […] 2. Method of treatment: […] The course of treatment is one month. After two months, review by gastroscopy. Omeprazole is used in the control group by oral administration once every day, one piece every time (20 mg), the course of treatment is the same. 3. Observation items: ulcer surface (regarding results tested by gastroscope as standard), partial clinical symptoms (such as abdominal pain and acid reflux) 4. Curative effect evaluation standard: referring to Chinese national diagnostic curative effect standard.

[2] = tested on: male Prostatic hyperplasia patients; assay: Clinical curative effects of PHD on male Prostatic hyperplasia; format: in vivo, human
From the text: Case selection: 72 patients, male, wherein 53 cases with the age of 60-69 years old, 16 cases with the age of 70-79 years old, 3 cases with the age of 80-89 years old. The longest course of disease is 11 years, the shortest is 3 months. There are 6 cases with the course of disease smaller than one year, 48 cases with the course of disease in the range of 1-4 years, 14 cases with the course of disease in the range of 5-10 years, 4 cases with the course of disease bigger than 10 years. There are 12 cases with prostate enlargement I-degree, 44 cases with prostate enlargement II-degree, and 16 cases with prostate enlargement III-degree. There are 4 cases integrated with bladder stones, and 6 cases with urinary infection.
Observation method: based on the ages of patients, course of disease and state of illness, patients are divided into two groups.
(1) The control group comprises 36 patients, administered with finasteride tablet, one every time, one time every day, oral administration.
(2) The treatment group comprises 36 patients, administered with PHD, four hours every time, one time every day, hanging.
Observe patients' symptoms before and after administration which mainly includes frequent urination at night, difficult urinating, urination becoming thinner, drop after urination, micturition pain, and urgent urination. No, light, medium, heavy symptoms are scored 0, 1, 2, 3 respectively. Observe integral changes before and after treatment. Rectal touch and B ultra examination are made to observe the recovery condition of prostate enlargement.
Based on the ratio of the integral difference of local symptom before administration to that after administration and the condition of prostate recovery, curative effects are evaluated. If healing, the integral ratio is 1, and prostate enlargement is back to normal. […] If effective, the integral ratio is in the range of ⅔ to ⅓, and prostate enlargement is improved. If invalid, the integral ration is smaller than ⅓, and prostate enlargement has no change.

Kunming mice = assay: Pharmacodynamic test of the cough-relieving effect (ammonia-induced cough); format: in vivo; conditions: 1 hour after administering, control: codeine phosphate 4 mg/kg by gavage, test: hung
Method: 60 kunming mice, in half respectively male and female and weighing from 18 g to 20 g, are randomly divided into 5 groups based on the weight, each group comprises 12 rice. […] suspension agent is hung in the test group. Codeine phosphate with a dosage of 4 mg/kg is administered to the control group by gavage.
For the above two groups, at 1 hour after administering, absorb 0.2 ml ammonia (with a concentration of 25%-28%) by 1 ml injector and inject the ammonia into the tampon with the same weight thereof, and then quickly put the injected tampon together with the white rice into an inverse 500 ml beaker, and then record the number of animal coughing within 3 minutes. The obvious decrease of cough frequency is regarded as the index of the antitussive effect.

hyperuricemia mice = assay: Pharmacodynamic test of hyperuricemia; format: in vivo
Method: Kunming male mice, weighing 24±2 g, are randomly divided into several groups, use i, g, once every day for 4 days, wherein the dosages administered to the saline group and the hyperuricemia model blank group are […] every day. IP potassium oxide hydrochloride for every hyperuricemia model blank group at 2 hours before blood sampling, and IP potassium oxide hydrochloride for test model group at 1 hour before the last using. At 2 hours after the last using, sample blood from the venous plexus behind the animal orbit to test the serum uric acid level.

[3] = 12 weeks, DHD versus Gliquidone
[4] = of healed cases (14 NHD, 6 Omeprazole), time unit not given
[5] = treat group 50 cases NHD, control group 30 cases Omeprazole 20 mg oral
[6] = 36 cases per group, PHD versus finasteride tablet

Compound: COc1ccc2c(c1)C(=O)N(CCc1ccc(S(=O)(=O)NC(=O)NC3CCCCC3)cc1)C(=O)C2(C)C [Gliquidone]
- Blood glucose at 2 hours after the meal: Effective (cases) (patients with diabetes; [3]): 6
- Blood glucose at 2 hours after the meal: Invalid (cases) (patients with diabetes; [3]): 0
- Blood glucose at 2 hours after the meal: Marked (cases) (patients with diabetes; [3]): 4
- Blood glucose at 2 hours after the meal: Total efficient rate (patients with diabetes; [3]): 100.0
- Fasting blood glucose (FBG): Effective (cases) (patients with diabetes; [3]): 6
- Fasting blood glucose (FBG): Invalid (cases) (patients with diabetes; [3]): 1
- Fasting blood glucose (FBG): Total efficient rate (patients with diabetes; [3]): 90.0
- Fasting blood glucose (FBG): Marked (cases) (patients with diabetes; 12 weeks, treatment group DHD four hours/day, control group Gliquidone 30 mg increased to 90 mg): 3
- Blood glucose at 2 hours after the meal (patients with diabetes; After treating 2 weeks): 17.48
- Fasting blood glucose (FBG) (patients with diabetes; After treating 2 weeks): 9.99
- Blood glucose at 2 hours after the meal (patients with diabetes; After treating 4 weeks): 12.77
- Fasting blood glucose (FBG) (patients with diabetes; After treating 4 weeks): 9.27
- Blood glucose at 2 hours after the meal (patients with diabetes; After treating 8 weeks): 10.07
- Fasting blood glucose (FBG) (patients with diabetes; After treating 8 weeks): 8.43
- BUN (patients with diabetes; After treating (12 weeks)): 9.2 ± 0.6 mmol/L
- Blood glucose at 2 hours after the meal (patients with diabetes; After treating (12 weeks)): 9.21
- Fasting blood glucose (FBG) (patients with diabetes; After treating (12 weeks)): 7.62
- Scr (patients with diabetes; After treating (12 weeks)): 250.9 ± 49.3 µmol/L
- Urine protein (patients with diabetes; After treating (12 weeks)): 6.0 ± 2.7
- BUN (patients with diabetes; Before treating): 9.5 ± 0.7 mmol/L
- Blood glucose at 2 hours after the meal (patients with diabetes; Before treating): 14.79
- Fasting blood glucose (FBG) (patients with diabetes; Before treating): 10.72
- Scr (patients with diabetes; Before treating): 251.3 ± 54.6 µmol/L
- Urine protein (patients with diabetes; Before treating): 6.2 ± 2.5

Compound: COc1ccc2[nH]c([S+]([O-])Cc3ncc(C)c(OC)c3C)nc2c1 (centres unmarked) [Omeprazole]
- needed time for curing diseases: cases healed at course of treatment 6 [1, 4]: 0
- needed time for curing diseases: cases healed at course of treatment 7 [1, 4]: 0
- needed time for curing diseases: cases healed at course of treatment 8 [1, 4]: 2
- needed time for curing diseases: cases healed at course of treatment 9 [1, 4]: 4
- Healing (cases) ([1]; treat group 50 cases NHD hung 5 hours/day, control group 30 cases Omeprazole 20 mg oral once daily): 6
- Invalid effect (cases) [1, 5]: 5
- Marked effect (cases) [1, 5]: 6
- Total efficient rate (%) [1, 5]: 83.3%
- Turning better (cases) [1, 5]: 13

Compound: CC(C)(C)NC(=O)[C@H]1CC[C@H]2[C@@H]3CC[C@H]4NC(=O)C=C[C@]4(C)[C@H]3CC[C@]12C [finasteride tablet, finasteride]
- Effective (cases) [2, 6]: 6
- Invalid (cases) [2, 6]: 16
- Marked (cases) [2, 6]: 10
- Total efficient rate [2, 6]: 52.78%
- total effective cases [2, 6]: 26 cases
- Healing (cases) ([2]; 36 cases per group, treatment PHD hung four hours daily, control finasteride tablet oral once daily): 4
- Integral values of local symptoms before and after administration ([2]; in words, control P>0.05, treatment P<0.001): significant differences

Compound: COc1ccc2c3c1O[C@H]1[C@@H](O)C=C[C@H]4[C@@H](C2)N(C)CC[C@@]341 [Codeine phosphate]
- inhibition at 4 mg/kg (Kunming mice; Mus musculus, po, read-out: Cough inhibition Rate (%)): 67.3%
- Cough Frequency (Kunming mice; number of coughing within 3 minutes): 11.2 ± 4.8

Compound: Oc1ncnc2[nH]ncc12 [Allopurinol]
- Serum uric acid level of mice (mg/100 ml) (hyperuricemia mice; hyperuricemia mice, 2 hours after the last using, 4 days, Allopurinol dosage 10): 7.46 ± 0.17 mg/100 ml
- effect on serum uric acid level of normal mice (hyperuricemia mice; normal mice, in words): can reduce the serum uric acid level of normal mice
